This is an account of results in a melting point compilation (Tetko et al.; mined from patent text by program, amines drawn as free bases though some values may be those of a salt).

Take `CCc1c(-c2ccccc2)c2c(COCCN3CCCCC3)cc3c(O)ccc1n32`: the melting point fell in the range of 196 to 198 °C.
Consider `Cc1nc(Cl)c2c(c1O)COC2CCc1ccccc1` (stereo not given), for which the melting point is 193 °C.
In turn, `COc1ccc(-c2cccc3c2COC3=O)c2c1OCCO2` returned a melting point of 158 to 160 °C.
In the case of `Cc1ccc(Cn2cc(C(=O)C(=O)O)c3cc(-c4ccccc4)ccc32)cc1` it was 195 to 196 °C; in that of `Nc1nc2c(s1)CCc1nc3ccccn3c1-2`, 249 °C; in that of `COC(=O)C(C)(Cc1ccc(OCCc2nc(-c3ccccc3)oc2C)cc1)C(=O)OC`, 75.1 to 76 °C.
The value for `CNC(=O)c1ccc2[nH]cc(C3=CCN(C)CC3)c2c1` was 125 to 135 °C; that for `CC(=O)OC1CCC2(C)C(CCC3C4CC(C)=C(C(C)=O)C4(C)CC(=O)C32)C1` (stereo not given) was 200 to 208 °C; that for `ON=C(Cc1ccccc1)c1ccc(Cl)c(Cl)c1` was 81 to 82 °C.
The value for `O=C(NCCN1CCCC1)c1cccc(-c2cccc(OCCc3ccc(Cl)cc3Cl)n2)c1` was 115 to 116 °C.
`O=C1NC(=O)c2ccccc2/C1=C/Nc1ccc(CN2CCCCC2)cc1` had a melting point of 185 to 186 °C.
In the case of `CCCCCCCCCC[C@@H]1C(=O)OC(c2ccccc2)=C[C@@H]1C(=O)OC` it was 108 to 111 °C.
In the case of `CCCCCCCOC(N)=O` it was 84 °C.
The value for `O=[N+]([O-])c1cccc(-c2csc(Nc3ccccc3C(F)(F)F)n2)c1` was 182 °C.
As to `Cc1oc(-c2ccco2)nc1COc1ccc(CON=C(CCCCCCC(=O)O)c2ccccc2)cc1`, the melting point lay in the range of 75 to 77 °C.
In the case of `Cc1ccccc1C(=O)NC(NC(=NC#N)Nc1cccnc1)C(Cl)(Cl)Cl` (stereo not given) it was 126 to 128 °C.
The value for `CC(C)(c1cc(F)cc([N+](=O)[O-])c1O)c1cc(Cl)cc([N+](=O)[O-])c1O` was 160 °C; that for `CC(O)C#CC1CCC2C3CCC4CC(O)CCC4(C)C3CCC12C` (stereo not given) was 169 to 171 °C.
In the case of `CC(=O)NNc1ccnc2c(NC(=O)c3c(Cl)cccc3Cl)c(C)ccc12` it was > 250 °C.
`N=C(N)NCCCCC(=O)Nc1ccc(OCc2ccccc2)c(C(=O)NCCC(=O)O)c1`: the melting point lay within 242 to 245 °C.
`OC1(C(Cl)Cl)O[C@H](COCc2ccccc2)[C@@H](OCc2ccccc2)[C@H](OCc2ccccc2)[C@H]1OCc1ccccc1` (stereo not given in full): the melting point is 72 to 73 °C.
As for `COc1ccc2c(c1)CCC(C(O)C(=O)O)C2=O` (stereo not given), the melting point lay within 212 to 214 °C.
The value for `CC(C)Nc1nc2cc(C#N)ccc2[nH]1` was 185 to 190 °C; that for `CCCc1c(OCCCSc2ccc(C(C)=O)c(OCCCC(=O)OCC)c2CCC)ccc(C(C)=O)c1O` was 87 to 88 °C.
The value for `CC1CCc2c(-n3cccc3)ccc3c(=O)c(C(=O)O)cn1c23` (stereo not given) was 303 to 305 °C.
The value for `FC(F)(F)c1cccc(C2=CCN(CCc3ccc(-c4ccccc4)cc3)CC2)c1` was 114 to 116 °C; that for `CCCCCCCCCCCCCCCc1cc2cccc(C(=O)O)c2[nH]1` was 93 to 99 °C.
For `Cc1cc(C)c(S(=O)(=O)Oc2nc(Nc3ccc(F)cc3F)c(C(=O)n3ccnc3)cc2F)c(C)c1`, the melting point fell in the range of 98 to 101 °C.
The value for `CC(c1oc2ccccc2c(=O)c1-c1cccc(F)c1)n1nc(-c2ccc(Cl)s2)c2c(N)ncnc21` (stereo not given) was 226 to 229 °C; that for `Cc1oc(-c2ccccc2)nc1COc1ccc(CON=C(CCCCC(=O)O)c2ccccc2)cc1` was 101 to 102 °C; that for `Fc1ccc2nc(Cl)c3nnc(C(F)(F)F)n3c2c1` was 135 to 138 °C.
On to `COc1cc(F)ccc1-c1ccc(S(=O)(=O)N2c3ccccc3CC2C(=O)NCc2ccccc2NCCC(=O)O)cc1` (stereo not given), for which the melting point is 121 to 125 °C.
For the molecule `N#CCc1cc(C(=O)O)cs1`, the melting point was in the range of 154 to 159 °C.
`Cc1[nH]c2c(Cl)cc(Nc3cnccc3N)cc2c1C`: the melting point lay within 108 to 110 °C.
Consider `CN(CCOC1CCCCO1)c1cc(NC(=O)OC(C)(C)C)c([N+](=O)[O-])cc1C#Cc1ccc(F)cc1` (racemic), for which the melting point came out at 134 °C.
With `FC(F)(F)c1ccc(Nc2nccc(-c3cccc(Cl)c3)n2)cc1`, the melting point is 202 °C.
As for `CC(C)CN1CCCC[C@H]1CNc1nc(Oc2cccc3[nH]c(=O)c(N)nc23)cc(-c2ccc(C(F)(F)F)cc2)n1`, the melting point worked out at 228 °C.
In turn, `O=C(Nc1ccc(Cl)cc1)c1c(O)c2cccnc2n(-c2ccccc2)c1=O` gave a melting point of 281 to 286 °C.
In the case of `Cc1ccc(C)n1-c1cc(F)c(C2(O)CCSCC2)c(F)c1` it was 125 to 126 °C; in that of `Cc1c(Cl)nnc(Cl)c1C`, 80 to 82 °C; in that of `CN(C)C(=O)[C@@H]1C[C@H](C(=O)OC(C)(C)C)N[C@@H]1c1ccccc1` (racemic), 97 °C.
`CS(=O)(=O)c1ccc(Oc2cc(OC3CCOCC3)c3[nH]c(C4=NCC(CCO)S4)cc3c2)cc1` (stereo not given): the melting point was in the range of 116 to 117 °C.
The value for `CCCCCCCCCCc1cnc(-c2ccc(OCC(C)(C#N)CCCC)cc2)nc1` (stereo not given) was 43 °C; that for `CCOC(=O)C1=CC2(CCC1S(=O)(=O)Nc1ccc(F)cc1Cl)O[C@H]([C@H](O)CO)[C@@H]([C@H](O)CO)O2` (stereo not given in full) was 55 to 56 °C; that for `CCCOc1ccc(-c2ccc3c(c2)C=C(C(=O)Nc2ccc(CN(C)C4CCOCC4)cc2)CCN3C=O)cc1` was 207 to 209 °C.
Turning to `CC(C)(C)c1ccc(C(O)CCCCN2CCC(=C3c4ccccc4CCc4ccccc43)CC2)cc1` (stereo not given), the melting point was 157 to 158 °C.
For `O=P(O)(O)COc1ccc(-c2c3ccccc3cc3sc4ccccc4c23)cc1`, the melting point lay within 240 to 242 °C.
In the case of `O=C(c1cccc(C(F)(F)F)c1)c1ncccc1C(O)=NNc1ccc(C(F)(F)F)cc1` it was 127 to 129 °C; in that of `COc1ccc(C(=O)Nc2c(Cl)cncc2Cl)c2c1oc1ccccc12`, 302 °C; in that of `CCCCc1[nH]c(CC)nc(=O)c1Cc1ccc(-c2ccccc2C(=O)O)cc1`, 207 °C.
In the case of `CNC(=O)c1cc(-c2ccc(OC)cc2)nn(CC=C(C)C)c1=O` it was 104 °C.
In the case of `O=C(O)c1ccncc1C(=O)c1cc(F)ccc1F` it was 214 to 216 °C; in that of `COC(=O)COc1ccc(OC)cc1C=O`, 74 to 75 °C.
On to `CCc1[nH]n(C2CCCC2)c2nc(Cc3ccc([N+](=O)[O-])cc3)nc(=O)c1-2`, for which the melting point fell in the range of 221 to 223 °C.
The value for `CCC(CC)n1cnc2c1c(=O)n(C)c(=O)n2-c1ccc(Cl)cc1Cl` was 158 to 159 °C; that for `O=C(O)CCc1cn(Cc2ccc(OCc3csc(-c4ccccc4)n3)cc2)cc1-c1ccccc1` was 111 to 112 °C; that for `N#CCCNC(=O)c1cccc(-c2cccc3nn(Cc4cccc(C(F)(F)F)c4)cc23)n1` was 178 to 179 °C.
On to `O=C1c2ccccc2C(=O)N1c1ccccc1CSc1nccn1Cc1ccccn1`, for which the melting point was 80 to 83 °C.
The value for `CC(=O)OC(C)(C)C(=O)Nc1c(C(=O)c2cc(C)ccn2)[nH]c2cc(Cl)ccc12` was 222 to 223 °C; that for `CC12C=CCC1C1CCC3CC(=O)CCC3C1CC2` (stereo not given) was 51 to 54 °C.
For `O=C(NC(SC(=O)c1ccccc1)C(=O)NC(Cc1c[nH]c2ccccc12)C(=O)O)c1ccccc1` (stereo not given), the melting point was in the range of 188 to 191 °C.
In the case of `Cc1cc(COc2ccc(C(=O)NC[C@@H](C(=O)NO)N3CCCCC3)cc2)c2ccccc2n1` it was 190 °C; in that of `CCCCCCCCCCCCCCCCCc1nnc2n1-c1sc(CC)cc1C(c1ccc(C)cc1)=NC2`, 78 to 80 °C; in that of `O=S(=O)(CCCCCOc1ccc(C2=C(c3ccccc3)CCCc3cc(O)ccc32)cc1)CCCC(F)(F)C(F)(F)F`, 176 to 178 °C.
In the case of `CCn1ncc2nc(C(=O)N3CCN(C)CC3)c(-c3ccccc3)nc21` it was 170 to 171 °C; in that of `CCCN1CCc2ccc(C(=O)CCC(=O)N3CCC(c4ccc(Cl)cc4)CC3)cc2CC1`, 151 to 152 °C.
The value for `CCN(CC)C(=O)CNc1cc(N)ccc1OC` was 111 °C; that for `O=C(Nc1ccc(-n2nc(C(F)(F)F)cc2C2CC2)c(F)c1)c1cccc(F)c1F` was 132 to 135 °C.
Consider `Oc1ccc(C2=CCN(CCCN3CCOCC3)CC2)cc1`, for which the melting point was 166 to 168 °C.
In the case of `O=[N+]([O-])C1(F)C=C(OCC2CCCSC2)C(Cl)=CC1` (stereo not given) it was 100 to 103 °C.
In the case of `COc1ccc(-c2sc(-c3ccc(OC)s3)c3c2OCCO3)s1` it was 101 °C; in that of `COc1ccc([N+](=O)[O-])cc1NC(C)=O`, 172 to 177 °C; in that of `N#CCCNC(=O)c1cccc(-c2cccc3oc(Cc4cccc(C(F)(F)F)c4)cc23)c1`, 107 to 108 °C.
The value for `CCCc1c(C#N)ccc(NC(=NC#N)Nc2ccccc2Cl)c1O` was 159 to 160 °C; that for `CSc1ccc(-c2c(Cl)nc(Cl)nc2-c2ccc(Cl)cc2)cc1` was 144 to 146 °C; that for `Cc1nc2nc(SCc3ccccc3)nn2c(C)c1Cl` was 164 to 166 °C.
`CS(=O)(=O)NCC1COCc2nc3c(N)nc4ccccc4c3n21` (stereo not given) had a melting point of 285 to 288 °C.
Turning to `COc1ccccc1N1CCN(CCc2ccc3c(c2)oc(=O)n3C)CC1`, the melting point was 137 to 138 °C.
Turning to `Cc1nc(-c2cccc(C(=O)O)c2)sc1C(=O)O`, the melting point is 295 to 296 °C.
In the case of `N#Cc1c(N)n[nH]c1N1CCN(Cc2ccccc2)CC1` it was 157 to 158 °C; in that of `CC(C)C1(C)CCNC1=O` (stereo not given), 88 to 90 °C; in that of `CC1=CC(=O)CC(C)(C)C1(O)/C=C/C(C)=C\C=O` (stereo not given), 111 to 113 °C.
The value for `Cc1cc2c3c(ccc2cc1C#N)OC(=O)C3(C)C` was 215 to 217 °C.
The value for `Nc1cccc2ccc(OCC3CC3)cc12` was 49 to 50 °C; that for `O=C(Nc1nc(C(F)(F)C(F)(F)F)c(I)s1)c1cc(C(F)(F)F)cc(C(F)(F)F)c1` was 143 to 144 °C.
